Data reported in US20060035291A1, “Method of detecting cellular immunity and application thereof to drugs” (priority 2001, published 2006).

Test system: HLA-A2 restricted antigen peptide-specific T cells (CTL precursors) in PBMCs
Experiment: IFN-γ production (ELISA) by peptide-stimulated HLA-A2 positive PBMCs in response to peptide-sensitized T2 cells
Format: cell-based, human
Design: production level of IFN-γ: unit not given here
Conditions: for production level of IFN-γ: average of 4, HIV peptide background subtracted; for IFN-γ production 1st well / IFN-γ production 2nd well / IFN-γ production 3rd well / IFN-γ production 4th well: before vaccination
[1] = HD6, HLA-A2 positive healthy donor
[2] = HD7, HLA-A2 positive healthy donor
[3] = HD8, HLA-A2 positive healthy donor
[4] = HD9, HLA-A2 positive healthy donor
[5] = HD10, HLA-A2 positive healthy donor
[6] = HLA-A2 positive cervical cancer patient, response to HIV-T2 cells subtracted
[7] = HLA-A2 positive prostate cancer patient
[8] = Pt. 11, HLA-A2 positive pancreatic cancer, ELISA sensitivity limit 10 pg/ml
[9] = Pt. 12, HLA-A2 positive pancreatic cancer, ELISA sensitivity limit 10 pg/ml
[10] = Pt. 13, HLA-A2 positive pancreatic cancer, ELISA sensitivity limit 10 pg/ml
[11] = Pt. 14, HLA-A2 positive pancreatic cancer, ELISA sensitivity limit 10 pg/ml
[12] = Pt. 15, HLA-A2 positive pancreatic cancer, ELISA sensitivity limit 10 pg/ml

Row | Substance | production level of IFN-γ [1] | production level of IFN-γ [2] | production level of IFN-γ [3] | production level of IFN-γ [4] | production level of IFN-γ [5] | IFN-γ production 1st well [6] [pg/well] | IFN-γ production 2nd well [6] [pg/well] | IFN-γ production 3rd well [6] [pg/well] | IFN-γ production 4th well [6] [pg/well] | IFN-γ production 1st well [7] [pg/well] | IFN-γ production 2nd well [7] [pg/well] | IFN-γ production 3rd well [7] [pg/well] | IFN-γ production 4th well [7] [pg/well] | production level of IFN-γ [8] | production level of IFN-γ [9] | production level of IFN-γ [10] | production level of IFN-γ [11] | production level of IFN-γ [12]
1 | DLLSHAFFA [ppMAPkkk432] | 0 | 0 | 0 | 0 | 73 | 137 | 12 | <0 | <0 | 43 | 64 | <0 | 5 | 42 | 57 | 58 | 0 | 0
2 | ALVEFEDVL [HNRPL140] | 967 | 0 | 0 | 0 | 99 | 24 | <0 | 13 | 40 | 16 | <0 | <0 | <0 | 0 | 63 | 0 | 317 | 39
3 | VLEGMEW [CypB172] |  |  |  |  |  | 22 | <0 | <0 | <0 | <0 | 0 | <0 | <0 |  |  |  |  | 
4 | KLKHYGPGWV [CypB129] | 0 | 0 | 31 | 29 | 6 |  |  |  |  |  |  |  |  | 43 | 0 | 0 | 0 | 0
5 | ILGELREKV [WHSC2141] | 0 | 0 | 0 | 12 | 260 | 10 | <0 | <0 | <0 | 6 | 14 | <0 | 9 | 0 | 47 | 0 | 659 | 38
6 | LLQAEAPRL [SART3302] | 0 | 0 | 51 | 70 | 0 | <0 | <0 | 8 | <0 | <0 | <0 | <0 | <0 | 32 | 0 | 226 | 8 | 0
7 | KLVERLGAA [lck246] | 0 | 21 | 29 | 26 | 0 | 19 | <0 | <0 | <0 | <0 | <0 | <0 | <0 | 74 | 16 | 24 | 0 | 0
8 | ASLDSDPWV [WHSC2103] | 0 | 0 | 0 | 0 | 96 | 74 | <0 | <0 | <0 | 3 | 0 | <0 | <0 | 186 | 154 | 0 | 38 | 0
9 | NVLHFFNAPL [HNRPL501] | 0 | 0 | 0 | 0 | 0 | 24 | <0 | <0 | 18 | <0 | 7 | <0 | <0 | 0 | 0 | 14 | 0 | 13
10 | RLAEYQAYI [SART3309] | 0 | 127 | 30 | 25 | 0 | <0 | <0 | 9 | 28 | <0 | <0 | <0 | <0 | 116 | 0 | 19 | 3 | 27
11 | DVWSFGILL [lck422] | 0 | 11 | 23 | 60 | 26 | <0 | <0 | <0 | 8 | 1 | <0 | <0 | <0 | 20 | 81 | 10 | 71 | 0
12 | RLQEWCSVI [UBE2V43] | 980 | 31 | 0 | 3 | 56 | 13 | 11 | <0 | <0 | <0 | <0 | <0 | <0 | 0 | 0 | 0 | 7 | 0
13 | LIADFLSGL [UBE2V85] | 0 | 0 | 0 | 0 | 1226 | 7 | 34 | <0 | <0 | 0 | <0 | 7 | <0 | 0 | 1 | 13 | 7 | 43
14 | GLLFLHTRT [ppMAPkkk294] | 0 | 58 | 0 | 0 | 86 | 133 | <0 | <0 | <0 | <0 | 34 | <0 | <0 | 179 | 170 | 0 | 0 | 0
